Results taken from publication PMC8225008, “Development of Non-Ethoxypropanoic Acid Type Cryptochrome Inhibitors with Circadian Molecular Clock-Enhancing Activity by Bioisosteric Replacement” (Pharmaceuticals, 2021).

Test: In vivo pharmacokinetics in rats after IV or PO administration
Set-up: species or system Sprague Dawley (SD) male rats
Settings: male, Sprague Dawley, rat, oral 5 mg/kg, measured as 2d form in plasma
Description: For in vivo pharmacokinetic studies, Sprague Dawley (SD) male rats (weighing 270–280 g) were purchased from Orient Bio Inc. (Seongnam, Korea). Experimental protocols involving animal use were carefully reviewed and approved by the Institutional Animal Care and Use Committee at Gachon University. Prior to studies, animals fasted for 18 h, but with free access to water. Compound 5d or 2d was dissolved in a dosing vehicle consisting of PEG400, normal saline, and dimethylsulfoxide in a ratio of 6:3:1 (v/v/v%) to make a 2 mg/mL dosing solution. […]
To determine drug concentration levels in plasma, the Agilent 1290 UHPLC-DAD system with Polar RP column (3 μm, 150 mm × 2 mm ID., Phenomenex) was used for chromatographic separations. […] The total run time was 4.4 min for samples which were monitored at 260 nm. […]
The EC50 values for luciferase reporter assay were calculated based on a logistic four-parametric equation using the mean values of intrinsic activation (SigmaPlot 10.0; Systat Software Inc., San Jose, CA, USA). The IC50 and t1/2 values for the cytochrome P450 inhibition assay and metabolic stability test were calculated by WinNonlin software (Pharsight, Mountain View, CA, USA). Pharmacokinetic parameters were calculated using non-compartmental analysis (WinNonlin v.8.3; Pharsight, Mountain View, CA, USA). […]

half-life: 6.52 ± 0.793 h
AUC (read-out: AUCinfinite (converted)): 184 µg·h/mL
SMILES: CC(=NOCc1ccc([N+](=O)[O-])cc1)c1cccc(OCC(=O)O)c1 [Compound 2d, 2-(3-(1-(((4-nitrobenzyl)oxy)imino)ethyl)phenoxy)acetic acid]
